How the values were obtained:
Experiment in all cases: relative viability (nuclei count vs DMSO), 5 days (fraction); higher = more cells survive
[1] = tested on: A549
Summary of the method: (§1)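 Relative viability was taken as the ratio of nuclei in treated wells to nuclei in vehicle wells. Lung cancer cell lines in 1536-well plates received compounds by pin tool one day after seeding, either one drug alone or a fixed anchor-drug dose plus five library-drug doses (not always all listed) in √10 steps. Nuclei were counted on 4× images after 5 days of treatment, and values are medians of duplicate plates.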

[2] = tested on: Calu-6
Summary of the method: as §1

[3] = tested on: EBC-1
Summary of the method: as §1

[4] = tested on: IA-LM
Summary of the method: as §1

[5] = tested on: NCI-H1299
Summary of the method: as §1

[6] = tested on: NCI-H1563
Summary of the method: as §1

| Structure (SMILES) | relative viability ([1]; first compound 0.253 µM) | relative viability ([1]; first compound 0.8 µM) | relative viability ([1]; first compound 2.53 µM) | relative viability ([1]; first compound 8 µM) | relative viability ([2]; first compound 0.253 µM) | relative viability ([2]; first compound 0.8 µM) | relative viability ([2]; first compound 2.53 µM) | relative viability ([2]; first compound 8 µM) | relative viability ([3]; first compound 0.253 µM) | relative viability ([3]; first compound 0.8 µM) | relative viability ([3]; first compound 2.53 µM) | relative viability ([3]; first compound 8 µM) | relative viability ([4]; first compound 0.253 µM) | relative viability ([4]; first compound 0.8 µM) | relative viability ([4]; first compound 2.53 µM) | relative viability ([4]; first compound 8 µM) | relative viability ([5]; first compound 0.253 µM) | relative viability ([5]; first compound 0.8 µM) | relative viability ([5]; first compound 2.53 µM) | relative viability ([5]; first compound 8 µM) | relative viability ([6]; first compound 0.253 µM) | relative viability ([6]; first compound 0.8 µM) | relative viability ([6]; first compound 2.53 µM) | relative viability ([6]; first compound 8 µM) |
| --- | --- | --- | --- | --- | --- | --- | --- | --- | --- | --- | --- | --- | --- | --- | --- | --- | --- | --- | --- | --- | --- | --- | --- | --- |
| Nc1cccc2c1CN(C1CCC(=O)NC1=O)C2=O (stereo unspecified) [Lenalidomide] + C[C@]1(O)C[C@@H](c2nc(-c3ccc4ccc(-c5ccccc5)nc4c3)c3c(N)nccn32)C1 [Linsitinib] (partner 1 µM) | 0.539 | 0.573 | 0.56 | 0.368 | 0.836 | 0.984 | 1.12 | 0.818 | 0.826 | 0.849 | 1.09 | 0.774 | 0.605 | 0.468 | 0.667 | 0.49 | 0.954 | 0.968 | 1.06 | 0.852 | 1.17 | 1.16 | 1.08 | 1.01 |
| Nc1cccc2c1CN(C1CCC(=O)NC1=O)C2=O (stereo unspecified) [Lenalidomide] + C[C@@H](Oc1cc(-c2cnn(C3CCNCC3)c2)cnc1N)c1c(Cl)ccc(F)c1Cl [Crizotinib] (partner 1 µM) | 0.777 | 0.835 | 0.745 | 0.902 | 0.808 | 0.825 | 1.06 | 1.01 | 0.195 | 0.191 | 0.154 | 0.194 | 0.833 | 0.753 | 0.759 | 0.756 | 0.978 | 1 | 1.01 | 0.977 | 0.882 | 0.782 | 0.811 | 0.88 |
| Nc1cccc2c1CN(C1CCC(=O)NC1=O)C2=O (stereo unspecified) [Lenalidomide] + CS(=O)(=O)N1CCN(Cc2cc3nc(-c4cccc5[nH]ncc45)nc(N4CCOCC4)c3s2)CC1 [Pictilisib] (partner 1 µM) | 0.491 | 0.448 | 0.553 | 0.52 | 0.861 | 1.01 | 1.06 | 0.969 | 0.398 | 0.323 | 0.498 | 0.512 | 0.37 | 0.375 | 0.338 | 0.359 | 0.733 | 0.923 | 0.931 | 0.963 | 0.713 | 0.667 | 0.685 | 0.638 |
| Nc1cccc2c1CN(C1CCC(=O)NC1=O)C2=O (stereo unspecified) [Lenalidomide] + CCNC(=O)c1noc(-c2cc(C(C)C)c(O)cc2O)c1-c1ccc(CN2CCOCC2)cc1 [Luminespib] (partner 0.01 µM) | – | – | – | – | – | – | – | – | – | – | – | – | – | – | – | – | – | – | – | – | 0.535 | 0.526 | 0.468 | 0.581 |
| Nc1cccc2c1CN(C1CCC(=O)NC1=O)C2=O (stereo unspecified) [Lenalidomide] + O=C(c1cc(Cc2n[nH]c(=O)c3ccccc23)ccc1F)N1CCN(C(=O)C2CC2)CC1 [Olaparib] (partner 8 µM) | 0.401 | 0.101 | 0.22 | 0.228 | 0.547 | 0.591 | 0.674 | 0.799 | 0.708 | 0.603 | 0.823 | 0.691 | 0.874 | 0.799 | 0.777 | 0.728 | 0.938 | 1.03 | 1 | 1.07 | – | – | – | – |
